{"source": "patent US9084805B2", "about": "“Sialic acid to support the immune system in the elderly” (Nestec S.A., priority 2008, dated 2015)", "format_in_all_cases": "in vivo, C57BL/6J mice", "key": {"SOD2": {"system": "SOD2", "assay": "Liver mRNA expression of SOD2 in aged mice (TaqMan low density array)", "settings": "0.8 weight-% N-acetylneuraminic acid in diet for 42 days, vs non-supplemented AlN-93, n=8", "procedure": "(§1) Specific pathogen-free male C57BL/6J mice (4-weeks old) were purchased from Janvier (France). Mice were housed under conventional circumstances (12 hours light/dark cycle, temperature 22° C., humidity 56%) and received water and semi-synthetic Kliba 3436 diet ad libitum. Until the age of 5 months, mice were maintained at 5 per cage and then they were individually caged. All conditions and handling of the animals were approved by the Nestle and state ethical committees with the agreement of the Swiss Federal Veterinary Advisor. […]\n(§2) Mice were killed on day 42 of trial. The expression of genes involved in inflammatory processes was determined in the liver of aged mice that were supplemented or not with SiAc for 42 days. […]\n(§3) Liver samples were transferred into 1 ml of RNA lysis buffer (Macherey-Nagel, Düren, Germany) and homogenized using Ribolyzer (Hybaid, Waltham, Mass., USA) with the following setting: power at 6 for 20 seconds. […] RNA quantification was achieved using the Ribogreen RNA Quantitation Kit (Molecular Probes; Eugene, Oreg. USA), and RNA quality was assayed using Agilent RNA 6000 Nano LabChip Kit (Agilent Technologies, Palo Alto, USA). […]"}, "TGF-β2": {"system": "TGF-β2", "assay": "Liver mRNA expression of TGF-β2 in aged mice (TaqMan low density array)", "settings": "0.8 weight-% N-acetylneuraminic acid in diet for 42 days, vs non-supplemented AlN-93, n=8", "procedure": "as §1, §2, §3"}, "HO-1": {"system": "HO-1", "assay": "Liver mRNA expression of HO-1 in aged mice (TaqMan low density array)", "settings": "0.8 weight-% N-acetylneuraminic acid in diet for 42 days, vs non-supplemented AlN-93, n=8", "procedure": "as §1, §2, §3"}, "aged mice": {"system": "aged mice", "assay": "Delayed-type hypersensitivity (DTH) response, ear swelling after KLH elicitation, in aged mice", "settings": "aged mice (19-months old), 0.8 weight-% N-acetylneuraminic acid in AlN-93 diet, vs non-supplemented AlN-93, n=10", "procedure": "Specific pathogen-free male C57BL/6J mice (4-weeks old) were purchased from Janvier (France). Mice were housed under conventional circumstances (12 hours light/dark cycle, temperature 22° C., humidity 56%) and received water and semi-synthetic Kliba 3436 diet ad libitum. Until the age of 5 months, mice were maintained at 5 per cage and then they were individually caged. All conditions and handling of the animals were approved by the Nestle and state ethical committees with the agreement of the Swiss Federal Veterinary Advisor. 19-months old mice were randomized into 2 groups of 10 animals and were fed with a semi-synthetic AlN-93 diet either non-supplemented (group control AlN-93, n=10) or supplemented with SiAc (0.8 weight-% N-acetylneuraminic acid in the diet) (group SiAc, n=10). During the 42 days of trial, all mice were allowed to drink and eat ad libitum.\nThe DTH response was used as an in vivo measure of cellular immunity. […] At 24 hours post-elicitation, and during the following 5 days, both the non-elicited (left ear) and the elicited ears (right ear) were measured. DTH responses (KLH-PBS) were expressed as the magnitude of ear swelling, i.e. the change in ear thickness using the following formula: Δ in ear thickness=[elicited ear (right, KLH) ear sickness−non-elicited (left, PBS) ear sickness], where Δ in ear thickness=[post-elicitation−pre-elicitation ear thickness]."}}}
{"molecule": "CC(=O)N[C@H]1[C@H]([C@H](O)[C@H](O)CO)OC(O)(C(=O)O)C[C@@H]1O", "note": "(stereo partly shown) [SiAc, N-acetylneuraminic acid]", "values": [{"measurement": "expression of gene encoding SOD2, defence against oxidative damage (FIG. 2)", "setting": "SOD2", "value": "increased expression"}, {"measurement": "expression of gene encoding anti-inflammatory molecule TGF-β2 (FIG. 2)", "setting": "TGF-β2", "value": "increased expression"}, {"measurement": "expression of gene encoding HO-1, defence against oxidative damage (FIG. 2)", "setting": "HO-1", "value": "increased expression"}, {"measurement": "cell-mediated immune response (DTH response, FIG. 1)", "setting": "aged mice", "value": "improved"}]}
